Laboratory results published in US20160287646A1, “MACROALGAE COMPOSITIONS, PROCESSES FOR PREPARATION THEREOF, AND USES IN SPORTS NUTRITION” (OmniActive Health Technologies (Canada) Limited, priority 2015, published 2016).

Experiments:
[1] = tested on: PGC-1α; test: PGC-1alpha ELISA in differentiated C2C12 cells; type: cell-based, mouse; conditions: overnight treatment, extracts 100 ug/mL, caffeine 500 uM, resveratrol 100 uM, control 100.01
Experimental: C2C12 cells (ATCC® CRL-1772) were seeded in 24- or 96-well culture plates as undifferentiated myoblasts and grown to 100% confluency in ATCC-formulated Dulbecco's Modified Eagle's Medium (DMEM) supplemented with 10% heat-inactivated fetal bovine serum (FBS). […] Differentiation medium consisted of ATCC-formulated DMEM supplemented with 2% heat-inactivated horse serum and was changed daily during the differentiation process. Cell culture conditions were maintained at 37° C. in a humidified atmosphere of 5% CO2/95% air. After 5 days of differentiation, cells were incubated in the presence or absence of macroalgae composition (with control). Cells were treated with macroalgae compositions and also control samples to check effect on said biomarkers. The compositions and control samples used are mentioned in the respective table, showing results of the test. The effect of select macroalgae compositions were assessed using the following assays: Concentrations of PGC-1α in differentiated C2C12 cells as a result of treatment with macroalgae composition were determined by ELISA (MyBiosource). Following overnight treatment, cell lysates were collected and centrifuged to remove cellular debris. […] The amount of PGC-1α captured by the anti-PGC-1α antibody was determined using a biotinylated-IgG antibody/HRP-streptavidin detection system.

[2] = tested on: C2C12 cells; test: Glucose uptake bioluminescent assay (2DG6P) in C2C12 cells; type: cell-based, mouse; conditions: for Glucose Uptake - glucose + insulin: 25 mM glucose + 1 uM insulin, compared to non-treated samples (glucose only 100.0)
Experimental: (§1) C2C12 cells (ATCC® CRL-1772) were seeded in 24- or 96-well culture plates as undifferentiated myoblasts and grown to 100% confluency in ATCC-formulated Dulbecco's Modified Eagle's Medium (DMEM) supplemented with 10% heat-inactivated fetal bovine serum (FBS). […] Differentiation medium consisted of ATCC-formulated DMEM supplemented with 2% heat-inactivated horse serum and was changed daily during the differentiation process. Cell culture conditions were maintained at 37° C. in a humidified atmosphere of 5% CO2/95% air. After 5 days of differentiation, cells were incubated in the presence or absence of macroalgae composition (with control). Cells were treated with macroalgae compositions and also control samples to check effect on said biomarkers. The compositions and control samples used are mentioned in the respective table, showing results of the test. The effect of select macroalgae compositions were assessed using the following assays:
(§2) Glucose uptake in C2C12 cells was determined by bioluminescent assay (Promega), based on the detection of 2-deoxyglucose-6-phosphate (2DG6P). When […] to cells, it is transported across the membrane and rapidly phosphorylated. However, further modification is not possible, resulting in accumulation within the cell. Addition of a 2DG6P detection reagent, leading to the generation of NADPH from 2DG6P, luciferin from NADPH, and light from luciferin, allows for detection of a bioluminescent signal. Overall, the luminescent signal is proportional to the concentration of 2DG6P, and thus the rate of glucose uptake. Glycogen synthesis was determined in cell culture lysates from differentiated C2C12 cells using a colorimetric assay kit from BioVision Inc. This involves the addition of glucoamylase to the samples that hydrolyzes glycogen to glucose; the glucose is then oxidized to form an intermediate that reduces OxiRed, forming a colored product with strong absorbance at 570 nm.

[3] = tested on: C2C12 cells; test: Glycogen synthesis colorimetric assay in differentiated C2C12 cells; type: cell-based, mouse; conditions: for Glycogen Content - glucose + insulin: 30 mM glucose + 100 nM insulin, compared to non-treated samples (glucose only 100.0); for Glycogen Content - glucose only: 30 mM glucose, compared to non-treated samples (100.0)
Experimental: as §1, §2

[4] = tested on: C2C12 cells; test: Mitochondrial mass (NAO probe fluorescence) in differentiated C2C12 cells; type: cell-based, mouse; conditions: fluorescent intensity relative to untreated control
Experimental: (§3) Mouse skeletal myoblasts C2C12 cells were used as a cell model to assess mitochondrial function and IGF-1 expression. Cells were cultured as undifferentiated myoblasts in high-serum growth media DMEM (Dulbecco's Modified Eagle Medium), supplemented with 10% FBS (Fetal bovine serum) and 1% penicillin/streptomycin. Cells were grown to full confluency at 37° C. in a humidified incubator with 5% CO2.
The effect of treatment with macroalgae composition on mitochondrial mass was assessed by measuring changes in fluorescent intensity in differentiated C2C12 cells. The nonylacridine orange (NAO) probe binds to cardiolipin in all mitochondria, regardless of their energetic state, providing a measure of mitochondrial mass and an indication of mitochondrial biogenesis. C2C12 cells were seeded in 96-well culture plates at a density of 2×10^4 cells/mL, induced to differentiate, and pre-treated with or without select macroalgae composition and controls. […] Probe fluorescence was measured (excitation 380 nm, emission 645 nm) using a fluorescence plate reader. Fluorescent intensity relative to untreated control was then calculated. To standardize probe fluorescence to protein content of the cells, total protein content (in μg) was assessed by bicinchoninic acid (BCA) using bovine serum albumin as standard.

[5] = tested on: C2C12 cells; test: Mitochondrial oxygen consumption (MitoXpress probe) in differentiated C2C12 cells; type: cell-based, mouse; conditions: macroalgae composition 100 ug/ml
Experimental: as §3
Extracellular oxygen consumption in differentiated C2C12 cells was measured by assessing phosphorescence of a porphyrin-based, water soluble, oxygen sensitive probe (MitoXpress®-Xtra-HS, Luxcel Biosciences). Probe fluorescence is quenched by molecular oxygen (O2), resulting in lower probe signal. As cellular respiration reduces the concentration of O2, probe signal increases. The rate of this increase is related to the rate of cellular oxygen consumption. C2C12 cells were seeded in 96-well culture plates at a density of 2×10^4 cells/mL, induced to differentiate, and incubated with MitoXpress probe ([…] the presence or absence of macroalgae composition (100 ug/ml). High sensitivity mineral oil was added (100 μL/well) to increase assay sensitivity by minimizing interference from ambient O2. Probe fluorescence was measured (excitation 380 nm, emission 645 nm) using a fluorescence plate reader.

[6] = tested on: insulin-like growth factor-1 (IGF-1); test: IGF-1 ELISA in differentiated C2C12 cells; type: cell-based, mouse; conditions: cell culture supernatants
Experimental: as §3
To evaluate the effect of treatment with macroalgae composition on insulin-like growth factor-1 (IGF-1) concentrations in differentiated C2C12 cells, the mouse IGF-1 enzyme-linked immunosorbent assay (ELISA) kit (Sigma) was utilized. The kit provides a quantitative measurement of mouse IGF-1 in cell culture supernatants by employing an antibody specific coated 96-well plate. Standards and samples were added to the coated plate and any IGF-1 present in the sample bound to the immobilized antibody. After washing away any unbound antibody, HRP-conjugated streptavidin was added to the wells. The wells were washed again, followed by addition of a colorimetric TMB reagent. Color developed in proportion to the amount of bound IGF-1. Addition of a stop solution changed the color from blue to yellow, and the color intensity was read at A450 with a microplate reader. Blank-corrected unknown sample protein concentrations were then extrapolated from a known standard curve.

[7] = tested on: H295R cells; test: Cortisol production immunoassay in H295R cells; type: cell-based, human; conditions: 24 h incubation
Experimental: It is a human adrenal cell line that presents a steroid secretion pattern and regulation similar to primary cultures of adrenal cells.
Cells were then incubated in the presence or absence of macroalgae composition for 24 h before assessing cortisol production.
To evaluate the effect of treatment with macroalgae composition on cortisol concentrations in H295R cells, the DetectX® (Arbor Assays) immunoassay was utilized. A cortisol standard was provided to generate a standard curve for the assay and all samples were read off the standard curve. Standards or samples were pipetted into a clear microtiter plate coated with an antibody. A cortisol-peroxidase conjugate was added to the standards and samples in the wells. The binding reaction was initiated by the addition of a monoclonal antibody to cortisol to each well. After 1 hour incubation, the plate was washed and substrate was added. The substrate reacted with the bound cortisol-peroxidase conjugate. After a short incubation, the reaction was stopped and the intensity of the generated color was detected in a microtiter plate reader capable of measuring 450 nm wavelength. The concentration of cortisol in the samples was then calculated.

[8] = tested on: C2C12 cells; test: ATP production colorimetric assay in C2C12 myotubes; type: cell-based, mouse; conditions: extracts 100 ug/mL, caffeine 500 uM, creatine 1 uM, control 99.99
Experimental: as §1, with “Cells were treated with macroalgae compositions and also control samples to check effect on said biomarkers. The compositions and control samples used are mentioned in the respective table, showing results of the test.” left out
To evaluate the effect of macroalgae composition on ATP levels, colorimetric assay kit (Sigma-Aldrich, St. Louis, Mo.) was used, which is an enzyme-linked approach that involves the conversion of ATP in the test sample to ADP via the action of glycerol kinase which catalyses the transfer of the phosphate group to glycerol. The reaction was monitored by use of colorimetric product whose concentration varies proportional to the amount of ATP present. […] After 30 minutes, the absorbance at 570 nm will be measured using a microplate reader, and ATP concentrations will be extrapolated from a standard curve.

[9] = tested on: Akt; test: BioPlex cell signaling assay, relative phosphorylation of Akt (PKB) in C2C12 cells; type: cell-based, mouse; conditions: differentiated C2C12 cells pre-treated 2 hours; ratio of fluorescence of phospho-protein to total protein
Experimental: (§4) The effects of macroalgae composition on biomarkers of sport nutrition based on protein synthesis platform were evaluated, wherein the compositions were tested with an initial MTT assay (MIT is a name of dye 3-(4,5-dimethylthiazol-2-yl)-2,5-diphenyltetrazolium bromide) to determine cytotoxicity and establish dose range for testing.
(§5) Test inputs chosen for the protein synthesis assay platform were assessed using BioPlex (BioRad) cell signaling assays, based on the principle of the sandwich ELISA. Capture antibodies directed against the desired biomarker were covalently coupled to magnetic beads, which reacted with the sample containing the biomarker of interest. After a series of wash steps to remove any unbound protein, a biotinylated detection antibody was added to create a “sandwich” complex. The final detection complex was formed with the addition of a streptavidin-phycoerythrin (SA-PE) conjugate, which serves as a fluorescent indicator. […] The beads were then re-suspended in assay buffer and read on the BioPlex MAGPIX system. […]
(§6) Phospho-PKB/PKB, Phospho-mTOR/mTOR, Phospho-p70S6k/p70S6k, their effects were more pronounced than creatine or whey protein. In Table 3 below, Phospho-PKB/PKB, Phospho-mTOR/mTOR, and Phospho-p70S6k/p70S6k are expressed as a ratio of the fluorescence of the phospho-protein divided by the fluorescence of the total protein.

[10] = tested on: mTOR (the mammalian target of rapamycin); test: BioPlex cell signaling assay, relative phosphorylation of mTOR in C2C12 cells; type: cell-based, mouse; conditions: differentiated C2C12 cells pre-treated 2 hours; ratio of fluorescence of phospho-protein to total protein
Experimental: as §4, §5, §6

[11] = tested on: p70S6k; test: BioPlex cell signaling assay, relative phosphorylation of p70S6k in C2C12 cells; type: cell-based, mouse; conditions: differentiated C2C12 cells pre-treated 2 hours; ratio of fluorescence of phospho-protein to total protein
Experimental: as §4, §5, §6

For `Oc1ccc(C=Cc2cc(O)cc(O)c2)cc1` [Resveratrol], the “PGC1-alpha production, Relative to Control” value [1] was 220.96, the “Glucose Uptake - glucose + insulin” value [2] was 291.0% and the “Glucose (G) Uptake - glucose only” value ([2]; 25 mM glucose, compared to non-treated samples (100.0)) was 132.4%. For the same compound, the “Glycogen Content - glucose + insulin” value [3] was 223.9% and the “Glycogen Content - glucose only” value [3] was 142.9%.

With `Cn1c(=O)c2c(ncn2C)n(C)c1=O` [Caffeine] the “Mitochondrial Mass” value [4] was 146, the “Mitochondrial Oxygen consumption” value [5] was 157 and the IGF-1 [6] was 130. For the same compound, the Cortisol [7] was 65, the “ATP production, Relative to Control” value [8] was 225.83 and the “PGC1-alpha production, Relative to Control” value [1] was 192.96. The “Glucose Uptake - glucose + insulin” value [2] was 198.7%, the “Glycogen Content - glucose + insulin” value [3] was 164.7% and the “Glycogen Content - glucose only” value [3] was 115.3%.

In the case of `CC(C)C[C@H](N)C(=O)O` [Leucine], the “Mitochondrial Mass” value [4] is reported as 157, the “Mitochondrial Oxygen consumption” value [5] is reported as 144 and the IGF-1 [6] is reported as 127. For the same compound, the Cortisol [7] was 65.3, the “Glucose Uptake - glucose + insulin” value [2] was 203.7% and the “Glycogen Content - glucose + insulin” value [3] was 158.2%. The “Glycogen Content - glucose only” value [3] was 111.1%.

“Insulin: control in protein synthesis assay; co-stimulus in glucose uptake and glycogen assays” gave a Phospho-PKB/PKB [9] of 315, a Phospho-mTOR/mTOR [10] of 311 and a Phospho-p70S6k/p70S6k [11] of 241. The “Glucose Uptake - glucose + insulin” value [2] was 189.5% and the “Glycogen Content - glucose + insulin” value [3] was 153.6%.

`CN(CC(=O)O)C(=N)N` [Creatine] was tested, and the Phospho-PKB/PKB [9] was 191, the Phospho-mTOR/mTOR [10] was 192 and the Phospho-p70S6k/p70S6k [11] was 162. For the same compound, the “ATP production, Relative to Control” value [8] was 233.17.
